Measured values from US20230140200A1, “COMPOSITIONS AND METHODS FOR DETECTING CELLS UNDERGOING FERROPTOSIS USING AN ANTIBODY” (THE TRUSTEES OF COLUMBIA UNIVERSITY IN THE CITY OF NEW YORK, priority 2020, published 2023).

Columns and labels:
HT-1080 cells [1] = test: Nuclear shrinkage by immunofluorescence (DAPI nuclei, CellProfiler); assay type: cell-based, human; conditions: vs DMSO
HT-1080 cells [2] = test: Immunofluorescence staining of treated cells, quantification of membrane intensity; assay type: cell-based, human; conditions: 8 h
TfR1 mRNA = test: qPCR of TfR1 transcripts; assay type: cell-based, human; conditions: 8 h, HT-1080 cells
Protocol: HT-1080 cells were seeded in 6-well plates at a density of 400 k cells/well and incubated overnight. The following day, IKE or RSL3 were diluted into wells from stock solutions and treated for indicated time periods. Following treatment, cells were rinsed in cold PBS, trypsinized, and pelleted in Eppendorf tubes. RNA was isolated from cell pellets using Qiagen's RNeasy extraction kit, following manufacturer's instructions (Qiagen). RNA quantity and quality was evaluated by a nanodrop spectrophotometer (Thermo Fisher Scientific). cDNA was generated from 2 μg of total RNA, which was then diluted ten-fold and used as a template in qPCR reactions on a Viia7 Real-Time system. Gene specific primers were used as follows: TfR1 FW: 5′ […] 3′ (SEQ ID No: 18); TFR1 RV: 5′ […] 3′ (SEQ ID No: 19); GAPDH FW: 5′ […] 3′ (SEQ ID No: 20); GAPDH RV: 5′ […] 3′ (SEQ ID No: 21).

HT-1080 cells [3] = test: Machine-learning training image set, TfR1 membrane fluorescence intensity; assay type: cell-based, human; conditions: fixed at 10-20% cell death
Protocol: Immunofluorescence (IF). HT-1080 cells were treated with 1 μM RSL3, 20 μM IKE, or 1 μM STS on poly-lysine-coated coverslips (Sigma Aldrich P4832) in 24-well plates. […] The cells were fixed and permeabilized with 4% PFA in PBS with 0.1% Triton X-100 (PBT), with 200 μL per well. The plates were covered with foil, and the cells were incubated and shaken at room temperature for 15-20 min. The PFA was disposed of safely, and the cells were washed with PBT three times. The cells were blocked with 5% normal goat serum (NGS) (ThermoFisher 50197Z) in PBT for 1 h at room temperature. The cells were then incubated with mouse 3F3 anti-Ferroptotic Membrane Antibody (3F3-FMA) at 1:500 dilution in PBT with 1% bovine serum albumin (BSA) and 5% NGS at 4° C. overnight. The cells were washed with PBT for 5 min three times. The cells were then incubated with goat anti-mouse IgG (H+L) Highly Cross-Adsorbed Secondary Antibody, Alexa Fluor 594 (Thermo Fisher Scientific Cat #A-11032, RRID:AB_2534091) at 1:200 dilution and FITC-phalloidin at 1:1000 dilution in PBT with 1% BSA for 1 h at room temperature. […]
Automated image analysis. […] Nuclei were detected via the DAPI signal. […] In a next step, morphology/symmetry features, texture (SER features) and intensity properties of the DAPI, FITC and red channel were calculated for each cell region (nuclei, cytoplasm, and membrane). […]

OCI-LY7 cells = test: C11-BODIPY lipid ROS flow cytometry; assay type: cell-based; conditions: 5 μM PE, 19 h at 37° C.
Protocol: 6 L of media (1% Pen-Strep 10% FBS and 89% RPMI with L-glutamine) containing 400 million OCI-LY7 (DSMZ Cat #ACC-688, RRID:CVCL_1881) cells/L were treated with 5 μM PE (piperazine erastin). Cells were incubated for 19 h at 37° C., then production of lipid ROS was confirmed using BODIPY-C11 by flow cytometry. Ferroptotic cells were pelleted in centrifuge at 1000 rpm for 10 min at 25° C. Cells were resuspended in 1 mL lysis buffer with a pan-protease inhibitor, lysed using a dounce homogenizer. 70% cell lysis was confirmed by microscope. Pellet containing the nuclear fraction and unlysed cells was obtained by centrifuge at 700×g for 10 min at 4° C. Supernatant was spun at 700×g for 10 min at 4° C. Supernatant was then transferred to a new tube and placed in centrifuge at 10,000×g for 45 min at 4° C. Pellet consisting of total membrane was resuspended in upper phase solution. Lower phase was added and mixture was incubated on ice for 5 min. Mixture was spun at 1000×g for 5 min at 4° C. […]
Cells were resuspended in […] HBSS containing 2 μM C11-BODIPY (BODIPY 581/591 C11) (Thermo Fisher Scientific, D3861) and incubated at 37° C. for 15 min. […] Fluorescence intensity was measured on the FL1 channel with gating to record live cells only (gate constructed from DMSO treatment group). A minimum of 10,000 cells were analyzed per condition. […]

HT-1080 cells [4] = test: High-content analysis of nucleus area; assay type: cell-based, human; conditions: RSL3 group vs DMSO group
Protocol: For the screening with five technical replicates, HT-1080 cells were washed with PBS, trypsinized and resuspended in cell culture medium. The cell suspension (2,000 cells in 50 μl per well) was dispensed into collagen (Sigma-Aldrich, St. Louis, Mass., USA) pre-coated 384-well plates (PerkinElmer 384-well CellCarrierUltra™). 24 h after seeding, medium was exchanged to medium containing 0.3 μM RSL3 (1 mM stock solution) dissolved in 100% dimethyl sulfoxide (DMSO) or DMSO alone. 50 μl medium with 0.3 μM RSL3/DMSO was added per well. The cells were then incubated (37° C.; 5% CO2) for 2.5 h prior to fixation and antibody staining. […] Finally, plates were recorded using the automated Operetta® microscope with the 20× high NA objective for high-resolution images (PerkinElmer, USA). For quantification, three images of each condition were recorded using three channels (Hoechst, Alexa488, TRITC). […] Quantification on cell number, cytoplasmic intensity, nucleus intensity and spot number per cell was performed using the Columbus Software (PerkinElmer, USA).
Multiparametric image analysis was performed using Columbus Software 2.8.0 (PerkinElmer). […] In a next step we have calculated the morphology and Alexa488 fluorescence intensity in each cell region (nucleus and cytoplasm). […] Each spot was detected as a small region within the corresponding image by having a higher intensity than its surrounding area. […]

HT-1080 cells [5] = test: Cell death after RSL3 incubation; assay type: cell-based, human; conditions: 1 μM, 4 h incubation

O=S(=O)(NC1CCCCC1)c1ccc2c(c1)C(=NO)c1cc(S(=O)(=O)NC3CCCCC3)ccc1-2 [FIN56, ferroptosis inducer 56, reference compound]
nuclei shrank (mean nucleus area) (HT-1080 cells [1]; 10 μM, 8 h incubation): 17%
change of 3F3-FMA staining pattern caused by inducer (HT-1080 cells [2]; 10 μM): same changes of 3F3-FMA pattern were observed

CC1(CCO)CC2(CCC(C(C)(C)C)CC2)OO1 (stereo not drawn) [FINO2, ferroptosis inducer endoperoxide, reference compound]
nuclei shrank (mean nucleus area) (HT-1080 cells [1]; 15 μM, 8 h incubation): 49%
change of 3F3-FMA staining pattern caused by inducer (HT-1080 cells [2]; 15 μM): same changes of 3F3-FMA pattern were observed

CC(C)Oc1ccc(C(=O)Cn2ccnc2)cc1-n1c(CN2CCN(C(=O)COc3ccc(Cl)cc3)CC2)nc2ccccc2c1=O [IKE, imidazole ketone erastin]
nuclei shrank (mean nucleus area) (HT-1080 cells [1]; 10 μM, 8 h incubation): 12%
change of 3F3-FMA staining pattern caused by inducer (HT-1080 cells [2]; 10 μM): same changes of 3F3-FMA pattern were observed
level of TfR1 mRNAs (TfR1 mRNA; 10 μM): didn't increase
TfR1 membrane fluorescence intensity after treatment (HT-1080 cells [3]; 20 μM): significant increase

CC(C)Oc1ccc(CN2CCNCC2)cc1-n1c(CN2CCN(C(=O)COc3ccc(Cl)cc3)CC2)nc2ccccc2c1=O [PE, piperazine erastin]
lipid peroxides (C11-BODIPY fluorescence) (OCI-LY7 cells): increase in lipid peroxides

COC(=O)c1ccc([C@@H]2c3[nH]c4ccccc4c3C[C@@H](C(=O)OC)N2C(=O)CCl)cc1 [RSL3, (1S, 3R)-RSL3]
nuclei shrank (mean nucleus area) (HT-1080 cells [1]; 1 μM, 4 h incubation): 27%
decrease of average nucleus area (HT-1080 cells [4]): 17%
HT-1080 cells died (HT-1080 cells [5]): 30%
level of TfR1 mRNAs (TfR1 mRNA; 1 μM): didn't increase
TfR1 membrane fluorescence intensity after treatment (HT-1080 cells [3]; 1 μM): significant increase

CC(C)(C)OO [tBuOOH, reference compound]
change of 3F3-FMA staining pattern caused by inducer (HT-1080 cells [2]; 100 μM): same changes of 3F3-FMA pattern were observed
